According to patent US8586591B2, “Aminopyrazine derivative and medicine” (Nippon Shinyaku Co., Ltd., priority 2009, dated 2013):
Where a name gives a salt, the structure may show the parent alone.

Key:
JAK2 tyrosine kinase = target: T1, JAK2 tyrosine kinase (Homo sapiens, UniProt O60674); assay: Test 1: inhibitory activity to JAK2 tyrosine kinase (ELISA); type: biochemical; conditions: 25 μM ATP in substrate solution, 30° C. for 1 hour, n=2
T1 construct: purchased Carnabioscience Co
Protocol: Test 1: Test for inhibitory activity to JAK2 and JAK3 tyrosine kinase 1. Preparation of Test Material
The test material was dissolved in dimethylsulfoxide (DMSO) to be 10 mM, and further diluted with DMSO to be 100-fold concentrations for measurement (1000, 300, 100, 30, 10, 3, 1, 0.3, 0.1, 0.03, 0.01 μM). In addition, solutions diluted with an assay buffer up to 20 times were used as solutions of the test material. As a negative control, a solution of DMSO diluted 20 times with an assay buffer was used. As the assay buffer, 15 mM Tris-Cl (pH 7.5), 0.01 v/v % Tween-20, and 1 mM dithiothreitol were used.
2. Measurement of the Activities of JAK2 and JAK3 Tyrosine Kinases
The activity was determined by ELISA. The solution of the test material (10 μl each; n=2) was placed in a streptavidine-coated 96 well plate (DELFIA Strip Plate 8×12 wells; Perkin Elmer), to which 20 μl each of substrate solution (625 nM biotin-labeled peptide substrate, 25 μM ATP, 25 mM MgCl2, 15 mM Tris-Cl (pH 7.5), 0.01 v/v % Tween-20, and 1 mM dithiothreitol), was added and stirred. Finally, 20 μl each of JAK2 tyrosine kinase (Carnabioscience Co.) (diluted to 0.75 nM with assay buffer) or JAK3 tyrosine kinase (Carnabioscience Co.) (diluted to 0.75 nM with assay buffer) was added, stirred and allowed to stand at 30° C. for 1 hour. The plate was washed 4 times with a washing buffer (50 mM Tris-Cl, pH 7.5, 150 mM NaCl, 0.02 v/v % Tween-20), and then a blocking buffer (0.1% Bovine Serum Albumin, 50 mM Tris-Cl, pH 7.5, 150 mM NaCl, 0.02 v/v % Tween-20)(150 μl each) was added for blocking at 30° C. for 30 minutes. Blocking buffer was removed, and there was added 100 μl each of horse radish peroxidase-labeled anti-phosphorylated tyrosin kinase antibody (BD Bioscience Co.) (diluted 10,000 times with blocking buffer). The plate was incubated at 30° C. for 30 minutes and then washed 4 times with a washing buffer, and 100 μl each of 3,3′,5,5′-tetramethylbenzidine (Sigma-Aldrich Co.) was added to develop color for 10 minutes. 0.1 M sulfuric acid (100 μl each) was added to stop the reaction. The absorbance was measured by means of a micro-plate reader (BIO-RAD; Model 3550) at 450 nm.
3. Analysis of the Results of the Measurement
The measured absorbance was subjected to a non-linear regression analysis by means of a SAS system (SAS Institute Inc.), and the concentration (IC50) of the test material which inhibited 50% of the activity of each tyrosine kinase was estimated.

JAK3 tyrosine kinase = target: T2, JAK3 tyrosine kinase (Homo sapiens, UniProt P52333); assay: Test 1: inhibitory activity to JAK3 tyrosine kinase (ELISA); type: biochemical; conditions: 25 μM ATP in substrate solution, 30° C. for 1 hour, n=2
T2 construct: purchased Carnabioscience Co
T2 sequence (P52333 1-1124): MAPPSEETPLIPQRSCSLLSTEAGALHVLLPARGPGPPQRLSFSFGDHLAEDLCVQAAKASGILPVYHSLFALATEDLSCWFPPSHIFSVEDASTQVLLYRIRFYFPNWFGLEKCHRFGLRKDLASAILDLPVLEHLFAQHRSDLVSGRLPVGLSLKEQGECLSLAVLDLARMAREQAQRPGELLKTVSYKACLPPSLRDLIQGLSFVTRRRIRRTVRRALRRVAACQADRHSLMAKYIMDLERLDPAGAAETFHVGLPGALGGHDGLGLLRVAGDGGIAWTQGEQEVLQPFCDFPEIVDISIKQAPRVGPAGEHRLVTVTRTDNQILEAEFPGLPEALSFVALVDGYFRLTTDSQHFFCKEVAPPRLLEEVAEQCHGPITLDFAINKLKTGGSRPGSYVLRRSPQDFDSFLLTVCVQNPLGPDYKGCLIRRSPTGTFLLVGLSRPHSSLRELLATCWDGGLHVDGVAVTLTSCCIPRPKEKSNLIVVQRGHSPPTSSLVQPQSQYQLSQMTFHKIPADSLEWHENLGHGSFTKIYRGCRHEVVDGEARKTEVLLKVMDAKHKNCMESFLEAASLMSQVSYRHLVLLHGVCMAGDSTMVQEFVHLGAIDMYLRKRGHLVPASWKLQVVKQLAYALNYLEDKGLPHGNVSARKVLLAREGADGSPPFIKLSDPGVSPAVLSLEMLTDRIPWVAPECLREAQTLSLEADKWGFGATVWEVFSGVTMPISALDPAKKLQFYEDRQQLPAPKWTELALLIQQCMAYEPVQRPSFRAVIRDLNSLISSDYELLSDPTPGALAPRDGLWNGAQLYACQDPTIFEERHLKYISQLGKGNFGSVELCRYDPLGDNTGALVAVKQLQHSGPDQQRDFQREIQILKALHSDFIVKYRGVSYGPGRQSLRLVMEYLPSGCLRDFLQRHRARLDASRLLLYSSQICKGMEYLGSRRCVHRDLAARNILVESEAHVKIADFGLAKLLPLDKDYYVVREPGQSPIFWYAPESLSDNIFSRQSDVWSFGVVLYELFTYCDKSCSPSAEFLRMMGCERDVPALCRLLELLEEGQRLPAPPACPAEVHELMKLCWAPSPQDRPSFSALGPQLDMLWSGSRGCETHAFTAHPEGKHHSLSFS
Outline: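 ELISA of JAK3 kinase activity with absorbance read at 450 nm. Compounds were tested from DMSO dilution series at 100-fold the measurement concentrations (1000–0.01 μM), diluted up to 20 times in assay buffer, against a DMSO negative control. IC50 was estimated by non-linear regression of absorbance.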

T1 sequence (O60674 whole entry): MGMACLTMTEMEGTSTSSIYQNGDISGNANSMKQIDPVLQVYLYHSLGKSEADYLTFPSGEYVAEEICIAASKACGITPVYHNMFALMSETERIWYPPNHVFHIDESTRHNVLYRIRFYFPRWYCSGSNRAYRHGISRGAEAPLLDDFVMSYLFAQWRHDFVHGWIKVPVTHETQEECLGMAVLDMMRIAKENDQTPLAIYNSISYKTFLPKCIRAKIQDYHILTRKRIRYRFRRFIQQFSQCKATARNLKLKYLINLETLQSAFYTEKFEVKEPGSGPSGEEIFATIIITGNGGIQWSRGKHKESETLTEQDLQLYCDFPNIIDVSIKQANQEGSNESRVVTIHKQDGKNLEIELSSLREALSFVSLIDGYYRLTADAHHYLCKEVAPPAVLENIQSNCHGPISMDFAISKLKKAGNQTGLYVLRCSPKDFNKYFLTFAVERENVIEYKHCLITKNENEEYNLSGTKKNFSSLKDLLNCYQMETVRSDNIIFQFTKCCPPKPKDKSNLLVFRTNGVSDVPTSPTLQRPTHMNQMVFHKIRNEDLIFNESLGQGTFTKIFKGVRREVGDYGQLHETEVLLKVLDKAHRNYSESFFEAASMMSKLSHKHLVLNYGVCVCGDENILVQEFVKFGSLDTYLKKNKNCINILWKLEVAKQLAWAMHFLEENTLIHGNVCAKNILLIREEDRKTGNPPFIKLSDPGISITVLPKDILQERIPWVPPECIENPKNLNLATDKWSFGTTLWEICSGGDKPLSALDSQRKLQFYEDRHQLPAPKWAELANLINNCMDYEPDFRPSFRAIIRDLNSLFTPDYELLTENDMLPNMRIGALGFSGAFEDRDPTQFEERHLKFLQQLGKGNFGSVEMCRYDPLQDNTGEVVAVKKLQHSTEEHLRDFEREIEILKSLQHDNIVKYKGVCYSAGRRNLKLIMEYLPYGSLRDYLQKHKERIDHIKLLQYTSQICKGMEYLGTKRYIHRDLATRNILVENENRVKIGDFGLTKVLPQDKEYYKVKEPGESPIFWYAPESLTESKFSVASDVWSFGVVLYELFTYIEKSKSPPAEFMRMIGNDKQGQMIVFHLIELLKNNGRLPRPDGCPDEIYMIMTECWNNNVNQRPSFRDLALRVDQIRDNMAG

IC50 (JAK2 tyrosine kinase)	IC50 (JAK3 tyrosine kinase)	Structure (SMILES)
2 nM	160 nM	C[C@H](Nc1cc(-c2cc[nH]n2)cc(Nc2cnccn2)n1)c1ccc(F)cc1 [Example 29, (S)—N^2-[1-(4-Fluorophenyl)ethyl]-N^6-(pyrazin-2-yl)-4-(1H-pyrazol-3-yl)pyridine-2,6-diamine]
0.4 nM	30 nM	CC(=O)N[C@H]1CCN(c2cc(Nc3cnccn3)nc(N[C@@H](C)c3ccc(F)cc3)n2)C1 [Example 33, N-{(S)-1-[2-{[(S)-1-(4-Fluorophenyl)ethyl]amino}-6-(pyrazin-2-ylamino)pyrimidin-4-yl]pyrrolidin-3-yl}acetamide maleate]
2.8 nM	200 nM	C[C@H](Nc1cc(-c2ccc(S(C)(=O)=O)cc2)cc(Nc2cnccn2)n1)c1ccc(F)cc1 [Example 36, (S)—N^2-[1-(4-Fluorophenyl)ethyl]-4-[4-(methylsulfonyl)phenyl]-N^6-(pyrazin-2-yl)pyridine-2,6-diamine hydrochloride]
3.2 nM	130 nM	CC(C)n1cc(-c2cc(Nc3cnccn3)nc(N[C@@H](C)c3ccc(F)cc3)c2)cn1 [Example 37, (S)—N^2-[1-(4-Fluorophenyl)ethyl]-4-(1-isopropyl-1H-pyrazol-4-yl)-N^6-(pyrazin-2-yl)pyridine-2,6-diamine hydrochloride]
2.3 nM	85 nM	CC(=O)N[C@H]1CCN(c2cc(Nc3cnccn3)nc(N[C@@H](C)c3ccc(F)cc3)c2)C1 [Example 38, N-{(S)-1-[2-{[(S)-1-(4-Fluorophenyl)ethyl]amino}-6-(pyrazin-2-ylamino)pyridin-4-yl]pyrrolidin-3-yl}acetamide hydrochloride]
0.93 nM	90 nM	C[C@H](Nc1cc(N2CCOCC2)cc(Nc2cnccn2)n1)c1ccc(F)cc1 [Example 39, (S)—N^2-[1-(4-Fluorophenyl)ethyl]-4-morpholine-N^6-(pyrazin-2-yl)pyridine-2,6-diamine]
3.4 nM	310 nM	C[C@H](Nc1cc(N2CCSCC2)cc(Nc2cnccn2)n1)c1ccc(F)cc1 [Example 40, (S)—N^2-[1-(4-Fluorophenyl)ethyl]-N^6-(pyrazin-2-yl)-4-thiomorpholinopyridine-2,6-diamine]
1.1 nM	51 nM	C[C@H](Nc1cc(OCCCO)cc(Nc2cnccn2)n1)c1ccc(F)cc1 [Example 41, hydrochloride]
1.2 nM	130 nM	C[C@H](Nc1nc(Nc2cnccn2)cc(N2CCC2)n1)c1ccc(F)cc1 [Example 43, (S)-6-(Azetidin-1-yl)-N^2-[1-(4-fluorophenyl)ethyl]-N^4-(pyrazin-2-yl)pyrimidine-2,4-diamine]
2.1 nM	140 nM	C[C@H](Nc1nc(Nc2cnccn2)cc(N2CC(F)C2)n1)c1ccc(F)cc1 [Example 44, (S)-6-(3-Fluoroazetidin-1-yl)-N^2-[1-(4-fluorophenyl)ethyl]-N^4-(pyrazin-2-yl)pyrimidine-2,4-diamine]
9 nM	2300 nM	C[C@H](Nc1nc(Nc2cnccn2)cc(N2CCC2=O)n1)c1ccc(F)cc1 [Example 45, (S)-1-{2-[1-(4-Fluorophenyl)ethylamino]-6-(pyrazin-2-ylamino)pyrimidin-4-yl}azetidin-2-one]
3.7 nM	93 nM	CCn1cc(-c2cc(Nc3cnccn3)nc(N[C@@H](C)c3ccc(F)cc3)c2)cn1 [Example 46, (S)-4-(1-Ethyl-1H-pyrazol-4-yl)-N^2-[1-(4-fluorophenyl)ethyl]-N^6-(pyrazin-2-yl)pyridine-2,6-diamine]

More lines, now with the values behind:

Structure (SMILES)	IC50 (JAK2 tyrosine kinase)	IC50 (JAK3 tyrosine kinase)
C[C@H](Nc1nc(Nc2cnccn2)cc(-c2cnco2)n1)c1ccc(F)cc1 [Example 22, (S)—N^2-[1-(4-Fluorophenyl)ethyl]-6-(oxazol-5-yl)-N^4-(pyrazin-2-yl)pyrimidine-2,4-diamine hydrochloride]	1.6 nM	88 nM
COc1ccc(-c2cc(Nc3cnccn3)nc(N[C@@H](C)c3ccc(F)cc3)n2)cn1 [Example 23, (S)—N^2-[1-(4-Fluorophenyl)ethyl]-6-(6-methoxypyridin-3-yl)-N^4-(pyrazin-2-yl)pyrimidine-2,4-diamine hydrochloride]	4.2 nM	210 nM
C[C@H](Nc1nc(Nc2cnccn2)cc(-c2cc[nH]n2)n1)c1ccc(F)cc1 [Example 24, (S)—N^2-[1-(4-Fluorophenyl)ethyl]-N^4-(pyrazin-2-yl)-6-(1H-pyrazol-3-yl)pyrimidine-2,4-diamine hydrochloride]	1.1 nM	53 nM
C[C@H](Nc1nc(Nc2cnccn2)cc(-c2ccnc(O)c2)n1)c1ccc(F)cc1 [Example 25, (S)-4-{2-[1-(4-Fluorophenyl)ethylamino]-6-(pyrazin-2-ylamino)pyrimidin-4-yl}pyridin-2-ol]	0.97 nM	100 nM
C[C@H](Nc1nc(Nc2cnccn2)cc(-c2ccc(O)nc2)n1)c1ccc(F)cc1 [Example 26, (S)-5-{2-[1-(4-Fluorophenyl)ethylamino]-6-(pyrazin-2-ylamino)pyrimidin-4-yl}pyridin-2-ol]	0.27 nM	28 nM
C[C@H](Nc1nc(Nc2cnccn2)cc(-c2cccnc2)n1)c1ccc(F)cc1 [Example 32, (S)—N^2-[1-(4-Fluorophenyl)ethyl]-N^4-(pyrazin-2-yl)-6-(pyridin-3-yl)pyrimidine-2,4-diamine ½ maleate]	0.5 nM	68 nM
C[C@H](Nc1nc(Nc2cnccn2)cc(-c2cn[nH]c2)n1)c1ccc(F)cc1 [Example 34, (S)—N^2-[1-(4-Fluorophenyl)ethyl]-N^4-(pyrazin-2-yl)-6-(1H-pyrazol-4-yl)pyrimidine-2,4-diamine maleate]	0.51 nM	59 nM
C[C@H](Nc1nc(Nc2cnccn2)cc(-c2cccc(S(C)(=O)=O)c2)n1)c1ccc(F)cc1 [Example 35, (S)—N^2-[1-(4-Fluorophenyl)ethyl]-6-[3-(methylsulfonyl)phenyl]-N^4-(pyrazin-2-yl) yrimidine-2,4-diamine hydrochloride]	2.5 nM	440 nM
CC(=O)NC1CN(c2cc(Nc3cnccn3)nc(N[C@@H](C)c3ccc(F)cc3)n2)C1 [Example 42, (S)—N-(1-{2-[1-(4-Fluorophenyl)ethylamino]-6-(pyrazin-2-ylamino)pyrimidin-4-yl}azetidin-3-yl)acetamide]	1 nM	66 nM
